Results: patent US20080299109A1, “MECHANISM OF ASTRICYTE-NEURON SIGNALING” (Korea Institute of Science and Technology, priority 2007, published 2008)

Tests used:
NR1/NR2A receptors = molecular target: T1, NR1/NR2A receptors (Homo sapiens, UniProt Q05586+Q12879); test: Glutamate-induced currents in NR1/NR2A transfected HEK 293 cells, perforated patch; type: cell-based; details: 30 nM thrombin 30 s, −60 mV and +60 mV
T1 construct: expressed in transfected cells; host or cells: HEK 293 cells
Description: Whole-cell perforated-patch recording from cultured cortical neurons or HEK cells under voltage clamp (holding potential −60 mV) was made with an Axopatch 200B amplifier (Axon Instruments, Union City, Calif.). The recording chamber was continually perfused with a recording solution comprised of 150 mM NaCl, 3 mM KCl, 2 mM CaCl2, 5.5 mM glucose, and 10 mM HEPES (pH 7.4 by NaOH; osmolality adjusted to 315-320 mOsm with sucrose). Recording electrodes (4-7 MΩ) were filled with (in mM) 150 mM CsMeSO4, 10 mM NaCl, 0.5 CaCl2, 10 mM HEPES, and 25-50 μg/ml gramicidin D (pH adjusted to 7.3 with CsOH and osmolality adjusted to 310 mOsm with sucrose). It took 20-30 min to achieve acceptable perforation with series resistance ranging from 30-60 MΩ. All electrophysiological data from cultured neurons cells in this study were collected at room temperature (23-26° C.).
The external solution included 0.2 mM MgCl2, 2 mM CaCl2, 100 nM ZnCl2, and 50 μM glycine. […] The response from the same cell is shown after a treatment of 30 nM thrombin for 30 s. […] The peak amplitudes of glutamate-induced currents were compared before and after thrombin treatment at −60 mV and +60 mV holding potentials.

[1] = tested on: NMDA receptor-mediated component of the EPSP; test: Current clamp EPSP recording in CA1 pyramidal cells; type: cell-based, rat; details: 30 μM TFLLR, 30 nM thrombin
Description: (§1) Young rats (Sprague-Dawley, age P15-P20) or mice (C57/B16, age P14-19) were deeply anesthetized with isoflurane and decapitated. The brain was rapidly removed and submerged in an ice-cold oxygenated artificial cerebrospinal fluid (ACSF) comprised of 130 mM NaCl, 24 mM NaHCO3, 3.5 mM KCl, 1.25 mM NaH2PO4, 1 mM CaCl2,3 mM MgCl2, and 10 mM glucose saturated with 95% O2/5% CO2, at pH 7.4.
The hemisected brain was glued onto the stage of a vibrating microtome (Leica VT1000 S) and sections of 300 μm thickness were cut and stored in an incubation chamber at room temperature for about 1 h before use. […]
Synaptic responses were evoked by applying 0.1 ms current injection (1-100 μA) to a bipolar stimulating electrode placed in the stratum radiatum. Thrombin (Calbiochem) concentration was determined as described by Gingrich et al. (2000) using conversion of 1 U/ml=10 nM. […]
A series of current clamp experiments were carried out to directly measure the effects of PAR1 activation on the NMDA receptor-mediated component of the EPSP recorded in the presence of 1.5 mM Mg^2+. […]

CA1 pyramidal neurons = test: Ca2+ dye imaging of CA1 pyramidal neurons in hippocampal slices; type: cell-based, rat; details: thrombin 30 nM, TFLLR 30 μM, trans-ACPD 100 μM, (S)-3,5-dihydroxyphenylglycine 30 μM
Description: as §1
The external solution contained 1 μM TTX. Throughout the experiments, −5 mV voltage steps (15 ms duration) were applied at 30 sec intervals from a holding potential of −70 mV to continuously monitor the holding current, series resistance, and membrane input resistance. After entering whole-cell mode, the CA1 pyramidal cells in slices were maintained for 20 min to allow for dye filling before image acquisition using a Princeton Micromax camera.
After the baseline period, TFLLR (30-100 μM) was applied, and images were acquired every 3 sec with a 25 ms exposure to 450-490 nm light for each image. Ca^2+-dependent fluorescence intensity (520 nm) was measured in cell bodies and processes by using Axon Imaging Workbench (v2.2.1) and expressed as ratio image of (F-Fo)/Fo, where Fo is the fluorescence intensity before drug treatment.

T1 sequence (Q12879 23-1464, other chains not shown): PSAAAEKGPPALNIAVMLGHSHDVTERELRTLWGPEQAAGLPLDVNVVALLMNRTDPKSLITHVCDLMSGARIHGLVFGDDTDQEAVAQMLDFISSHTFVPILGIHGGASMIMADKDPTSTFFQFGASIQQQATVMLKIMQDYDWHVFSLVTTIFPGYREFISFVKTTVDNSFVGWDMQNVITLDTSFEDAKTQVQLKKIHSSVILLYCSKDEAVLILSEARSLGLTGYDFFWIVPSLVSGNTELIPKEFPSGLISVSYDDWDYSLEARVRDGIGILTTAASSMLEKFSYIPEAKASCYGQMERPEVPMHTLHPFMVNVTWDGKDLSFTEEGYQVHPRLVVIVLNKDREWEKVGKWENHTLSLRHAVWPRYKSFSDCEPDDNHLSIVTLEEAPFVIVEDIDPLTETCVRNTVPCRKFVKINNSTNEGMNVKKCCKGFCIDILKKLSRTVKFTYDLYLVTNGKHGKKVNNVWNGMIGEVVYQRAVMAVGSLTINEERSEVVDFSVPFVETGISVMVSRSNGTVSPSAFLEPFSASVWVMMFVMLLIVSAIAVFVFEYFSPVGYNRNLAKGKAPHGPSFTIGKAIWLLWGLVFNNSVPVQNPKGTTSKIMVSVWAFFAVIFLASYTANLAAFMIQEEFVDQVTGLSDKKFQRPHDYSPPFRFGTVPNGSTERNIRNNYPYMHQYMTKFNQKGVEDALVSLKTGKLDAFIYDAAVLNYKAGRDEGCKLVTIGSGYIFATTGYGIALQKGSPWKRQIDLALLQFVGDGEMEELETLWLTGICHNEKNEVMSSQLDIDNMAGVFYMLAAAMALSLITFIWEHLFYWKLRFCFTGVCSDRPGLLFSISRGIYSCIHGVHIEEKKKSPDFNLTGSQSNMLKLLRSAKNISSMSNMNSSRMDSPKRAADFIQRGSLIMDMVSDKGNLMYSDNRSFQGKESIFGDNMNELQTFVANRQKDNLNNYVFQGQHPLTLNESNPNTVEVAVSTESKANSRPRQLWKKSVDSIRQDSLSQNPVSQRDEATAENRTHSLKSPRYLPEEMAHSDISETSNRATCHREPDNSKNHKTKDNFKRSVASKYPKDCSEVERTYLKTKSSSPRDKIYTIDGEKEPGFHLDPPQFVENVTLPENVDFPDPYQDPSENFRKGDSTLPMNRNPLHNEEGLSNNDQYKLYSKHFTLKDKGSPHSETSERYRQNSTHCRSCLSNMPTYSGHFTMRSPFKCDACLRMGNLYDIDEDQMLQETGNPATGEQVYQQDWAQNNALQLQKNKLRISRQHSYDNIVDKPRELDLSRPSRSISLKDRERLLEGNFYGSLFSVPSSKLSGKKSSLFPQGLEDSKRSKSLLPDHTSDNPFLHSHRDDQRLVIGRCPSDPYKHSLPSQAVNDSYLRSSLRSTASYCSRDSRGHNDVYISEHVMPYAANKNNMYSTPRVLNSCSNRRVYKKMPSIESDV

thrombin
glutamate-induced current profile before and after thrombin (NR1/NR2A receptors): no change
potentiation of synaptic NMDA component of EPSPs at 34° C. [1]: 120±6%
somatic fluorescence of Ca^2+-sensitive dyes in CA1 pyramidal neurons (CA1 pyramidal neurons): no significant increase
